In patent publication US20110124888A1, “STYRYLBENZOFURAN DERIVATIVES AS INHIBITORS FOR BETA-AMYLOID FIBRIL FORMATION AND PREPARATION METHOD THEREOF” (Korea Institute of Science and Technology, priority 2008, published 2011):
Structures can show the parent of a compound that is named as a salt. Where two headings read alike, the source gives them in different places.

Target: T1, beta-amyloid 42 (Aβ42) (Homo sapiens, UniProt P05067)
T1 construct: Beta-amyloid 42 (Aβ42) was dissolved in dimethylsulfoxide (DMSO)
Assay: Inhibitory effect on the formation of beta-amyloid fibrils in vitro (ThT fluorescence assay)
Assay type: biochemical
Settings: for inhibition at 10 µM: read-out: % Inhibition (10 μM); for IC50: In vitro ThT analysis (Aβ42: 25 μM); for % inhibition against the beta-amyloid 42 formation compared with curcumin: Tables 1 to 6, relative to curcumin
Description: In order to investigate the inhibitory effect on the formation of beta-amyloid fibrils, the inventive compounds were examined as follows:
Beta-amyloid 42 (Aβ42) was dissolved in dimethylsulfoxide (DMSO) to form a […] Aβ42 stock solution. In addition, ThT (thioflavin T) was dissolved in distilled water to a concentration of 1 mM and subsequently diluted with 50 mM glycin buffer (pH 8.5) to yield a 5 μM ThT stock solution.
45 μL of PBS (phosphate buffer saline, pH 7.4) was added to each of a 96 well fluorescence microplate (white, F-bottom). 5 μL of the 250 μM Aβ42 stock solution was added to each well. The final concentration of each compound obtained in Examples was in a range of 10 to 0.001 μM by adding 2 μL of a solution, which is prepared by dissolving the subject compounds obtained in Examples in DMSO, to each well. At this time, the final concentration of Aβ42 in each well was 25 μM. The plate was then incubated at room temperature for 1 hr, and 150 μL of the 5 μM ThT stock solution was added to each well.
The fluorescence intensity of each well was determined with the multi label fluorescence counter (LS-55 Luminescence spectrometer, Perkin Elmer) at an excitation wavelength of 450 nm (excitation slit width: 10 nm) and an emission wavelength of 482 nm (emission slit width: 10 nm), while adjusting counting time to 1 second. The control group was prepared by adding PBS solution, Aβ42 and DMSO, without adding the inventive compound. % Inhibition on the formation of beta-amyloid fibrils was calculated in accordance with the following equation and IC5O was calculated by using GraphPad Prism version 4.03 Program.
% Inhibition=[1−(C−D)/(A−B)]×100 Equation 1%
A (control group): fluorescence intensity in a group treated with PBS solution, Aβ42, and DMSO
B (blank): fluorescence intensity in a group treated with PBS solution and DMSO
C (experimental group): fluorescence intensity in a group treated with PBS solution, Aβ42, DMSO, and the inventive compound
D (compensation value to the experimental group): fluorescence intensity in a group treated with PBS solution, DMSO, and the inventive compound

[1] = 10 μM compound, Aβ42 25 μM, experiment of Table 2
[2] = 10 μM compound, Aβ42 25 μM, experiment of Table 6
[3] = 10 μM compound, Aβ42 25 μM, experiment of Table 5
[4] = 10 μM compound, Aβ42 25 μM, experiment of Table 4
[5] = 10 μM compound, Aβ42 25 μM, experiment of Table 3

T1 sequence (P05067 672-713 limits assumed): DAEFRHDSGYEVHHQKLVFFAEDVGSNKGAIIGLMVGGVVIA

Molecule: CCN(CC)c1ccc(C=Cc2cc3cc(O)ccc3o2)cc1 [Compound 56, 5-hydroxy-2-(4-diethylaminostyryl)benzofuran]
- inhibition at 10 µM [1]: 81.6%
- IC50 (experiment of Table 2): 1300 nM
- % inhibition against the beta-amyloid 42 formation compared with curcumin: superior % inhibition

Molecule: CN(C)c1ccc(C=Cc2cc3ccc(Cl)cc3o2)cc1 [Compound 13, 6-chloro-2-(4-dimethylaminostyryl)benzofuran]
- IC50 (experiment of Table 1): 3210 nM

Molecule: COc1ccc2cc(C=Cc3ccc(OC)c(OC)c3)oc2c1 [Compound 59, 6-methoxy-2-(3,4-dimethoxystyryl)benzofuran]
- inhibition at 10 µM [2]: 79.9%
- IC50 (experiment of Table 6): 1020 nM
- % inhibition against the beta-amyloid 42 formation compared with curcumin: superior % inhibition

Molecule: COc1ccc2oc(C=Cc3ccc(N(C)C)cc3)cc2c1 [Compound 2, 5-Methoxy-2-(4-dimethylaminostyryl)benzofuran]
- IC50 (experiment of Table 1): 810 nM

Molecule: COc1ccc2oc(C=Cc3ccc(OC)c(OC)c3)cc2c1 [Compound 38, 5-methoxy-2-(3,4-dimethoxystyryl)benzofuran]
- inhibition at 10 µM [1]: 81.1%
- IC50 (experiment of Table 2): 1560 nM

Molecule: COc1ccc(C=Cc2cc3cc(OC)ccc3o2)cc1 [Compound 37, 5-methoxy-2-(4-methoxystyryl)benzofuran]
- inhibition at 10 µM [1]: 67.9%
- IC50 (experiment of Table 2): 707 nM
- % inhibition against the beta-amyloid 42 formation compared with curcumin: superior % inhibition

Molecule: CCN(CC)c1ccc(C=Cc2cc3ccc(O)cc3o2)cc1 [Compound 69, 6-hydroxy-2-(4-diethylaminostyryl)benzofuran]
- inhibition at 10 µM [3]: 42.2%

Molecule: CN(C)c1ccc(C=Cc2cc3ccccc3o2)cc1 [Compound 1, 2-(4-dimethylaminostyryl)benzofuran]
- IC50 (experiment of Table 1): 2300 nM

Molecule: CN(C)c1ccc(C=Cc2cc3ccc(I)cc3o2)cc1 [Compound 15, 6-iodo-2-(4-dimethylaminostyryl)benzofuran]
- IC50 (experiment of Table 1): 2800 nM

Molecule: CNc1ccc(C=Cc2cc3ccccc3o2)cc1 [Compound 25, 2-(4-methylaminostyryl)benzofuran trifluoroacetate]
- inhibition at 10 µM: 59%

Molecule: COc1cc(/C=C/C(=O)CC(=O)/C=C/c2ccc(O)c(OC)c2)ccc1O [curcumin, reference compound]
- inhibition at 10 µM [1]: 92.1%
- inhibition at 10 µM [4]: 79.7%
- inhibition at 10 µM [3]: 67.8%
- inhibition at 10 µM [2]: 98.1%
- inhibition at 10 µM (10 μM compound, Aβ42 25 μM, experiment of Table 7): 76.4%
- inhibition at 10 µM: 78.3%

Molecule: COc1ccc(C=Cc2cc3ccccc3o2)cc1OC [Compound 28, 2-(3,4-dimethoxystyryl)benzofuran]
- inhibition at 10 µM [3]: 67.4%
- IC50 (experiment of Table 5): 3290 nM

Molecule: COc1ccc(C=Cc2cc3ccc(OC)cc3o2)cc1 [Compound 58, 6-methoxy-2-(4-methoxystyryl)benzofuran]
- inhibition at 10 µM [5]: 57.2%

Molecule: COc1ccc(C=Cc2cc3cc(OC)c(OC)cc3o2)cc1OC [Compound 55, 5,6-dimethoxy-2-(3,4-dimethoxystyryl)benzofuran]
- inhibition at 10 µM [3]: 51.4%

Molecule: Nc1ccc(C=Cc2cc3ccccc3o2)cc1 [Compound 24, 2-(4-aminostyryl)benzofuran trifluoroacetate]
- inhibition at 10 µM: 70.7%

Molecule: COc1ccc2cc(/C=C/c3ccc(N(C)C)cc3)oc2c1 [hydrochloride of Ex. 9]
- inhibition at 10 µM [2]: 62.9%
- IC50 (experiment of Table 6): 1880 nM
- % inhibition against the beta-amyloid 42 formation compared with curcumin: superior % inhibition

Molecule: COc1ccc(C=Cc2cc3cc(Cl)ccc3o2)cc1 [Compound 33, 5-chloro-2-(4-methoxystyryl)benzofuran]
- inhibition at 10 µM [1]: 51.8%
- IC50 (experiment of Table 2): > 100000 nM

Molecule: COc1ccc(C=Cc2cc3cc(Cl)ccc3o2)cc1OC [Compound 34, 5-chloro-2-(3,4-dimethoxystyryl)benzofuran]
- inhibition at 10 µM [1]: 72.5%
- IC50 (experiment of Table 2): 181 nM
- % inhibition against the beta-amyloid 42 formation compared with curcumin: superior % inhibition

Molecule: COc1ccc(C=Cc2cc3ccccc3o2)cc1 [Compound 27, 2-(4-methoxystyryl)benzofuran]
- inhibition at 10 µM [5]: 58.3%

Molecule: CN(C)c1ccc(C=Cc2cc3cc(I)ccc3o2)cc1 [Compound 8, 5-iodo-2-(4-dimethylaminostyryl)benzofuran]
- IC50 (experiment of Table 1): 168 nM
- % inhibition against the beta-amyloid 42 formation compared with curcumin: superior % inhibition

Molecule: CNc1ccc(C=Cc2cc3cc(OC)c(OC)cc3o2)cc1OC [Compound 53, 5,6-dimethoxy-2-(3-methoxy-4-methylaminostyryl)benzofuran]
- inhibition at 10 µM [3]: 56.2%

Molecule: COc1ccc(C=Cc2cc3cc(C)ccc3o2)cc1 [Compound 42, 5-methyl-2-(4-methoxystyryl)benzofuran]
- inhibition at 10 µM [1]: 69.7%
- IC50 (experiment of Table 2): 15900 nM

Molecule: CCN(CC)c1ccc(C=Cc2cc3cc(Cl)ccc3o2)cc1 [Compound 31, 5-chloro-2-(4-diethylaminostyryl)benzofuran]
- inhibition at 10 µM [4]: 37.9%
- IC50 (experiment of Table 4): 963 nM

Molecule: CCN(CC)c1ccc(C=Cc2cc3ccc(OC)cc3o2)cc1 [Compound 57, 6-methoxy-2-(4-diethylaminostyryl)benzofuran]
- inhibition at 10 µM [5]: 62.8%

Molecule: CN(C)c1ccc(C=Cc2cc3ccc(F)cc3o2)cc1 [Compound 12, 6-fluoro-2-(4-dimethylaminostyryl)benzofuran]
- IC50 (experiment of Table 1): 2190 nM

Molecule: COc1ccc(C=Cc2cc3cc(OC)c(OC)cc3o2)cc1 [Compound 54, 5,6-dimethoxy-2-(4-methoxystyryl)benzofuran]
- inhibition at 10 µM [2]: 77.8%
- IC50 (experiment of Table 6): 903 nM
- % inhibition against the beta-amyloid 42 formation compared with curcumin: superior % inhibition

Molecule: 5-methyl-2-(aminostyryl)benzofuran trifluoroacetate [Compound 39]
- % Inhibition (10 μM) [5]: 60.23%

Molecule: COc1ccc(C=Cc2cc3cc(I)ccc3o2)cc1OC [Compound 50, 5-iodo-2-(3,4-dimethoxystyryl)benzofuran]
- inhibition at 10 µM [4]: 62.4%
- IC50 (experiment of Table 4): 5790 nM
